Results on 11 compounds are retold here after PMC7935272 (PLoS Pathogens, 2021).

In series [1] the test system is MeV. Nature of the series: Cell-based anti-MeV assays of earlier work.
Series [2] relates to MeV. As to conditions: cited from earlier work; for IC50: Figure 7A source data; for EC50: experimental activity, read-out: EC50.
For series [3] the following is noted: cited from earlier work.
[4] abbreviates: −log10(EC50) of literature EC50.

Like-named read-outs stand apart in the source and are kept apart here.

`COCOCC1CCCCN1S(=O)(=O)c1ccc(NC(=O)c2cc(C(F)(F)F)nn2C)cc1` (stereo not shown) [1a, S(=O)(=O)(N1C(COCOC)CCCC1)c1ccc(NC(=O)c2n(C)nc(C(F)(F)F)c2)cc1]: the 50% inhibitory concentration (IC50) in the series with MeV [1] (Figure 7A source data), with MeV [1] (setting [4]) and in the series on MeV [2] was 1.5 µM throughout. In addition, the EC50 in the series on MeV [2] is 1.5 µM. Besides, the CC50 in series [3] is over 100 µM.

Take `CCOC(=O)C=CC1CCCCN1S(=O)(=O)c1ccc(NC(=O)c2cc(C(F)(F)F)nn2C)cc1` (stereo not shown) [2g, S(=O)(=O)(N1C(C=CC(=O)OCC)CCCC1)c1ccc(NC(=O)c2n(C)nc(C(F)(F)F)c2)cc1]: the IC50 with MeV [1] (Figure 7A source data) was 6.8 µM; in the series with MeV [1] (setting [4]) it was 6.81 µM; in the series on MeV [2] it was 6.8 µM. Further, the half-maximal effective concentration (EC50) with MeV [2] was 6.8 µM. Moreover, in series [3], the CC50 was over 100 µM.

On to `CCOC(=O)CCC1CCCCN1S(=O)(=O)c1ccc(NC(=O)c2cc(C(F)(F)F)nn2C)cc1` (stereo not shown) [2i, S(=O)(=O)(N1C(CCC(=O)OCC)CCCC1)c1ccc(NC(=O)c2n(C)nc(C(F)(F)F)c2)cc1], for which the half-inhibitory concentration (IC50) with MeV [1] (Figure 7A source data) is 6.7 µM; in the series on MeV [1] (setting [4]), 6.71 µM; with MeV [2], 6.69 µM. Also, in the series on MeV [2], the EC50 is 6.6 µM. For the same compound, in series [3], the CC50 was over 100 µM.

As to `Cn1nc(C(F)(F)F)cc1C(=O)Nc1ccc(S(=O)(=O)N2CCCC[C@H]2CCO)cc1` [2k, S(=O)(=O)(N1[C@H](CCO)CCCC1)c1ccc(NC(=O)c2n(C)nc(C(F)(F)F)c2)cc1], the IC50 in the series on MeV [1] (setting [4]) is 0.1 µM. In the series with MeV [2], the concentration giving a half-maximal response (EC50) was 0.1 µM. Besides, the CC50 in series [3] was over 100 µM.

As for `Cn1nc(C(F)(F)F)cc1C(=O)Nc1ccc(S(=O)(=O)c2ccccc2)cc1` [3a, S(=O)(=O)(c1ccc(NC(=O)c2n(C)nc(C(F)(F)F)c2)cc1)c1ccccc1], the concentration for half-maximal inhibition (IC50) is 0.09 µM in the series on MeV [1] (Figure 7A source data), 0.0902 µM in the series on MeV [1] (setting [4]) and 0.09 µM with MeV [2]. Further, the EC50 in the series with MeV [2] was 0.09 µM. The CC50 in series [3] is over 100 µM.

Regarding `COc1ccccc1S(=O)(=O)c1ccc(NC(=O)c2cc(C(F)(F)F)nn2C)cc1` [3b, S(=O)(=O)(c1c(OC)cccc1)c1ccc(NC(=O)c2n(C)nc(C(F)(F)F)c2)cc1], the half-maximal inhibitory concentration (IC50) in the series on MeV [1] (Figure 7A source data) was 3.1 µM; in the series with MeV [1] (setting [4]), 3.1 µM; in the series on MeV [2], 3.09 µM. In addition, in the series on MeV [2], the concentration giving a half-maximal response (EC50) was 3 µM. Moreover, the CC50 in series [3] was over 100 µM.

Consider `Cn1nc(C(F)(F)F)cc1C(=O)Nc1ccc(S(=O)(=O)c2ccccc2O)cc1` [3c, S(=O)(=O)(c1c(O)cccc1)c1ccc(NC(=O)c2n(C)nc(C(F)(F)F)c2)cc1], for which the results for the half-maximal inhibitory concentration (IC50) in the series with MeV [1] (Figure 7A source data), in the series with MeV [1] (setting [4]) and with MeV [2] were 4.5 µM, 4.51 µM and 4.5 µM, respectively. The concentration giving a half-maximal response (EC50) in the series with MeV [2] was 4.5 µM. Further, the CC50 in series [3] was 75 µM.

For the compound `CC(=O)Oc1ccccc1S(=O)(=O)c1ccc(NC(=O)c2cc(C(F)(F)F)nn2C)cc1` [3d, S(=O)(=O)(c1c(OC(=O)C)cccc1)c1ccc(NC(=O)c2n(C)nc(C(F)(F)F)c2)cc1], the half-maximal inhibitory concentration (IC50) in the series on MeV [1] (Figure 7A source data) is 4.5 µM; in the series with MeV [1] (setting [4]), 4.51 µM; with MeV [2], 4.5 µM. Moreover, the EC50 in the series on MeV [2] was 4.5 µM. The CC50 in series [3] is over 100 µM.

Regarding `CCn1nc(C(F)(F)F)cc1C(=O)Nc1ccc(S(=O)(=O)N2CCCCC2C)cc1` (stereo not shown) [9a, S(=O)(=O)(N1C(C)CCCC1)c1ccc(NC(=O)c2n(CC)nc(C(F)(F)F)c2)cc1], the half-inhibitory concentration (IC50) in the series with MeV [1] (Figure 7A source data) is 0.055 µM; in the series with MeV [1] (setting [4]) it was 0.0551 µM; in the series on MeV [2], 0.055 µM. Besides, in the series on MeV [2], the EC50 was 0.055 µM. Moreover, the CC50 in series [3] was 30 µM.

`Cn1cc(C(F)(F)F)cc1C(=O)Nc1ccc(S(=O)(=O)N2CCCCC2)cc1` [15a, S(=O)(=O)(N1CCCCC1)c1ccc(NC(=O)c2n(C)cc(C(F)(F)F)c2)cc1]: the 50% inhibitory concentration (IC50) with MeV [1] (Figure 7A source data), in the series on MeV [1] (setting [4]) and in the series on MeV [2] was 0.014 µM each time. In addition, in the series on MeV [2], the EC50 is 0.014 µM. In addition, the CC50 in series [3] was over 300 µM.

Turning to `Cn1nc(C(F)(F)F)cc1C(=O)Nc1ccc(S(=O)(=O)N2CCCCC2CO)cc1` (stereo not shown) [28c, S(=O)(=O)(N1C(CO)CCCC1)c1ccc(NC(=O)c2n(C)nc(C(F)(F)F)c2)cc1], the results for the concentration for half-maximal inhibition (IC50) in the series with MeV [1] (Figure 7A source data), in the series with MeV [1] (setting [4]) and in the series on MeV [2] were 0.85 µM, 0.851 µM and 0.85 µM, respectively. In addition, the half-maximal effective concentration (EC50) in the series on MeV [2] is 0.85 µM.

In general, IC50 refers to the concentration needed to halve the response being measured. For orientation: EC50 means the concentration at which the effect is half-maximal.
